Where a name gives a salt, the structure may show the parent alone. Read-outs that look alike come from different tables or passages of the source.

One data set is described as follows: Solubility. It is filed as physicochemical.
The next data set has as its system Klebsiella pneumoniae. Nature of the data set: Activity by turbidimetric estimation against a 9865 RP control. The following applies: purified product; units per mg, Klebsiella pneumoniae growth inhibition. It is filed as cell-based. The source says:
The following non-limitative Examples illustrate the invention. […] This activity is expressed in units (u) per mg. for solid products and in units per cc. for solutions. (The unit is defined as the smallest quantity of product which, dissolved in 1 cc. of an appropriate medium, inhibits the growth of Klebsiella pneumoniae under the conditions in question.)

The subject of a further data set is numerous bacteria. Kind of data set: Bacteriostatic activity (general statement). The class given is cell-based. The following applies: including antibiotic-resistant bacteria. The source says:
For each organism, the lowest concentration of substance has been determined which, under the defined conditions, prevents all visible development in an appropriate nutritive broth. The results of various determinations are shown in Table VI, wherein the minimal bacteriostatic concentrations are expressed as micrograms of substance per cubic centimeter of experimental medium.

Data set [1] concerns transplantable tumours in the mouse. Nature of the data set: Anti-cancer activity (general statement).

Regarding `COc1cccc2c1C(=O)c1c(O)c3c(c(O)c1C2=O)C[C@@](O)(C(C)=O)C[C@@H]3O[C@H]1C[C@H](N)[C@H](O)[C@H](C)O1` [13057 RP hydrochloride], the solubility in chloroform result in the data set “Solubility” (chloroform) is “slightly soluble”. Further, the solubility in water result in “Solubility” is on record as “soluble”.
In the case of `COc1cccc2c1C(=O)c1c(O)c3c(c(O)c1C2=O)C[C@@](O)(C(C)=O)C[C@@H]3O[C@H]1C[C@H](N)[C@H](O)[C@H](C)O1` [13057 RP], the activity in the data set on Klebsiella pneumoniae is 160 μ/mg. The solubility in benzene result in the data set “Solubility” (benzene) is reported as “particularly insoluble”. The “solubility in diethyl ether” value in the data set “Solubility” (diethyl ether) is reported as “particularly insoluble”. Besides, the solubility in ketones entry in the data set “Solubility” (ketones) is given as “very slightly soluble”. For the same compound, the solubility in water result in the data set “Solubility” is “very slightly soluble”. In the data set on numerous bacteria, the bacteriostatic activity result is on record as “exerted against numerous bacteria”. The anti-cancer activity result in data set [1] is listed as “most interesting of the new antibiotics”; in data set [1] (listed as 13057 R.P.), “very pronounced”.

The values are drawn from US3997662A, “Antibiotics and their preparation” (Rhone-Poulenc S.A., priority 1962, dated 1976).
